Source: the supplement of paper PMC13207355
Counter-ions that a name gives are not always drawn.

How the values were obtained:
Conditions in all cases: exposure time: 72 h
E31 [1] = patient-derived glioblastoma stem cells of proneural subtype; assay: surviving fraction (nuclei count normalised to DMSO); higher = more cells surviving (less toxic)
E21 [2] = patient-derived glioblastoma stem cells of mesenchymal subtype; assay: as above
E13 [3] = patient-derived glioblastoma stem cells of classical subtype; assay: as above
E28 [4] = patient-derived glioblastoma stem cells of classical subtype; assay: as above
FT3469 [5] = normal neural stem cell line; assay: as above
E34 [6] = patient-derived glioblastoma stem cells of proneural subtype; assay: as above
E57 [7] = patient-derived glioblastoma stem cells of mesenchymal subtype; assay: as above
E31 [8] = assay: phenotypic distance (Euclidean, principal components) from DMSO controls (arbitrary units); higher = stronger morphological change
E21 [9] = assay: as above
E13 [10] = assay: as above
E28 [11] = assay: as above
FT3469 [12] = assay: as above
E34 [13] = assay: as above
E57 [14] = assay: as above
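Wherever phenotypic distance (Euclidean, principal components) from DMSO controls is given: cell Painting imaging in 384-well plates, CellProfiler features reduced to at least 20 principal components, Euclidean distance versus same-plate DMSO vehicle wells (0.1% v/v), median over six images per well.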
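Wherever surviving fraction (nuclei count normalised to DMSO) is given: nuclei counted by high-content imaging of Hoechst-stained cells in laminin-coated 384-well plates, relative to 0.1% DMSO vehicle wells, with staurosporine as cell-death control.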

CC(NCCC(c1ccccc1)c1ccccc1)c1ccccc1 (stereo not drawn) [Fendiline hydrochloride]
surviving fraction (E31 [1]; 4.1 nM): 1.09
surviving fraction (E31 [1]; 12.3 nM): 0.954
surviving fraction (E31 [1]; 37 nM): 0.955
surviving fraction (E31 [1]; 111.1 nM): 1.02
surviving fraction (E31 [1]; 333.3 nM): 0.968
surviving fraction (E31 [1]; 1000 nM): 0.988
surviving fraction (E31 [1]; 3000 nM): 1.15
surviving fraction (E21 [2]; 4.1 nM): 1.03
surviving fraction (E21 [2]; 12.3 nM): 0.876
surviving fraction (E21 [2]; 37 nM): 0.962
surviving fraction (E21 [2]; 111.1 nM): 0.95
surviving fraction (E21 [2]; 333.3 nM): 1.01
surviving fraction (E21 [2]; 1000 nM): 0.962
surviving fraction (E21 [2]; 3000 nM): 0.961
surviving fraction (E13 [3]; 4.1 nM): 0.853
surviving fraction (E13 [3]; 12.3 nM): 0.993
surviving fraction (E13 [3]; 37 nM): 0.984
surviving fraction (E13 [3]; 111.1 nM): 0.898
surviving fraction (E13 [3]; 333.3 nM): 1.03
surviving fraction (E13 [3]; 1000 nM): 1.1
surviving fraction (E13 [3]; 3000 nM): 0.976
surviving fraction (E28 [4]; 4.1 nM): 0.897
surviving fraction (E28 [4]; 12.3 nM): 1.08
surviving fraction (E28 [4]; 37 nM): 0.956
surviving fraction (E28 [4]; 111.1 nM): 1.12
surviving fraction (E28 [4]; 333.3 nM): 0.967
surviving fraction (E28 [4]; 1000 nM): 1.08
surviving fraction (E28 [4]; 3000 nM): 1.04
surviving fraction (FT3469 [5]; 4.1 nM): 0.944
surviving fraction (FT3469 [5]; 12.3 nM): 0.918
surviving fraction (FT3469 [5]; 37 nM): 0.939
surviving fraction (FT3469 [5]; 111.1 nM): 1.11
surviving fraction (FT3469 [5]; 333.3 nM): 0.92
surviving fraction (FT3469 [5]; 1000 nM): 1.28
surviving fraction (FT3469 [5]; 3000 nM): 0.989
surviving fraction (E34 [6]; 4.1 nM): 1.02
surviving fraction (E34 [6]; 12.3 nM): 0.952
surviving fraction (E34 [6]; 37 nM): 0.969
surviving fraction (E34 [6]; 111.1 nM): 0.959
surviving fraction (E34 [6]; 333.3 nM): 1.07
surviving fraction (E34 [6]; 1000 nM): 0.954
surviving fraction (E34 [6]; 3000 nM): 1.09
surviving fraction (E57 [7]; 4.1 nM): 0.982
surviving fraction (E57 [7]; 12.3 nM): 1.03
surviving fraction (E57 [7]; 37 nM): 1.01
surviving fraction (E57 [7]; 111.1 nM): 1.08
surviving fraction (E57 [7]; 333.3 nM): 1.07
surviving fraction (E57 [7]; 1000 nM): 1.04
surviving fraction (E57 [7]; 3000 nM): 1.09
phenotypic distance (E31 [8]; 4.1 nM): 0.374
phenotypic distance (E31 [8]; 12.3 nM): 0.903
phenotypic distance (E31 [8]; 37 nM): 0.419
phenotypic distance (E31 [8]; 111.1 nM): 0.715
phenotypic distance (E31 [8]; 333.3 nM): 0.436
phenotypic distance (E31 [8]; 1000 nM): 0.581
phenotypic distance (E31 [8]; 3000 nM): 1.24
phenotypic distance (E21 [9]; 4.1 nM): 0.402
phenotypic distance (E21 [9]; 12.3 nM): 0.709
phenotypic distance (E21 [9]; 37 nM): 0.475
phenotypic distance (E21 [9]; 111.1 nM): 0.445
phenotypic distance (E21 [9]; 333.3 nM): 0.634
phenotypic distance (E21 [9]; 1000 nM): 0.668
phenotypic distance (E21 [9]; 3000 nM): 0.648
phenotypic distance (E13 [10]; 4.1 nM): 1.49
phenotypic distance (E13 [10]; 12.3 nM): 0.566
phenotypic distance (E13 [10]; 37 nM): 0.415
phenotypic distance (E13 [10]; 111.1 nM): 1.15
phenotypic distance (E13 [10]; 333.3 nM): 0.412
phenotypic distance (E13 [10]; 1000 nM): 0.615
phenotypic distance (E13 [10]; 3000 nM): 1.21
phenotypic distance (E28 [11]; 4.1 nM): 0.507
phenotypic distance (E28 [11]; 12.3 nM): 0.605
phenotypic distance (E28 [11]; 37 nM): 0.415
phenotypic distance (E28 [11]; 111.1 nM): 0.773
phenotypic distance (E28 [11]; 333.3 nM): 0.762
phenotypic distance (E28 [11]; 1000 nM): 0.645
phenotypic distance (E28 [11]; 3000 nM): 0.861
phenotypic distance (FT3469 [12]; 4.1 nM): 0.761
phenotypic distance (FT3469 [12]; 12.3 nM): 0.264
phenotypic distance (FT3469 [12]; 37 nM): 0.282
phenotypic distance (FT3469 [12]; 111.1 nM): 0.794
phenotypic distance (FT3469 [12]; 333.3 nM): 0.524
phenotypic distance (FT3469 [12]; 1000 nM): 1.26
phenotypic distance (FT3469 [12]; 3000 nM): 0.835
phenotypic distance (E34 [13]; 4.1 nM): 0.542
phenotypic distance (E34 [13]; 12.3 nM): 0.85
phenotypic distance (E34 [13]; 37 nM): 0.586
phenotypic distance (E34 [13]; 111.1 nM): 0.878
phenotypic distance (E34 [13]; 333.3 nM): 0.354
phenotypic distance (E34 [13]; 1000 nM): 0.817
phenotypic distance (E34 [13]; 3000 nM): 0.823
phenotypic distance (E57 [14]; 4.1 nM): 0.595
phenotypic distance (E57 [14]; 12.3 nM): 0.626
phenotypic distance (E57 [14]; 37 nM): 0.661
phenotypic distance (E57 [14]; 111.1 nM): 0.669
phenotypic distance (E57 [14]; 333.3 nM): 0.423
phenotypic distance (E57 [14]; 1000 nM): 0.376
phenotypic distance (E57 [14]; 3000 nM): 0.679
